Test results: ChEMBL document CHEMBL3885861, “Open TG-GATES”

Species: Rattus norvegicus
Experiment: Open TG-GATES - Regimen: Daily Repeat
Format: toxicity, organism-based, Sprague-Dawley
Set-up: regimen Daily Repeat, gender Male, age 6 weeks
Details: in vivo, po, 25 mg/kg, route gavage, dose level Middle; for APTT / Bas / Eos / Fbg / Hb / Ht / Lym / MCH / MCHC / MCV / Mono / Neu / PT / Plat / RBC / Ret / WBC: tissue Blood; for KIDNEY_L / KIDNEY_R / KIDNEY_TOTAL: tissue Kidney; for LIVER: tissue Liver; for A/G / ALP / ALT / AST / BUN / CRE / Ca / Cl / DBIL / GLC / IP / K / LDH / Na / PL / RALB / TBIL / TC / TG / TP / gamma-GTP: tissue Plasma

NC1=NC(=O)C(c2ccccc2)O1 (configuration not stated) [PEMOLINE]
TERMINAL_BW (72 h, time 3 day): 222.4 g
APTT (72 h, time 3 day): 16.7 s
Bas (72 h, time 3 day): 0%
Eos (72 h, time 3 day): 1%
Fbg (72 h, time 3 day): 288.4 mg/dL
Hb (72 h, time 3 day): 13.3 g/dL
Ht (72 h, time 3 day): 39%
Lym (72 h, time 3 day): 76.2%
MCH (72 h, time 3 day): 21.3 pg
MCHC (72 h, time 3 day): 33.9%
MCV (72 h, time 3 day): 62.6 fL
Mono (72 h, time 3 day): 3%
Neu (72 h, time 3 day): 19.4%
PT (72 h, time 3 day): 13 s
Plat (72 h, time 3 day): 109.7 x10_4/uL
RBC (72 h, time 3 day): 623.8 x10_4/ul
Ret (72 h, time 3 day): 6.1%
WBC (72 h, time 3 day): 79.9 x10_2/uL
KIDNEY_L (72 h, time 3 day): 1 g
KIDNEY_R (72 h, time 3 day): 0.9 g
KIDNEY_TOTAL (72 h, time 3 day): 1.9 g
LIVER (72 h, time 3 day): 9.9 g
A/G (72 h, time 3 day): 0.9
ALP (72 h, time 3 day): 1654.8 IU/L
ALT (72 h, time 3 day): 41.8 IU/L
AST (72 h, time 3 day): 72.6 IU/L
BUN (72 h, time 3 day): 13.8 mg/dL
CRE (72 h, time 3 day): 0.2 mg/dL
Ca (72 h, time 3 day): 10.7 mg/dL
Cl (72 h, time 3 day): 105.8 meq/L
DBIL (72 h, time 3 day): 0.018 mg/dL
GLC (72 h, time 3 day): 177.4 mg/dL
IP (72 h, time 3 day): 7.5 mg/dL
K (72 h, time 3 day): 4.1 meq/L
LDH (72 h, time 3 day): 54.2 IU/L
Na (72 h, time 3 day): 142.2 meq/L
PL (72 h, time 3 day): 130.6 mg/dL
RALB (72 h, time 3 day): 2.6 g/dL
TBIL (72 h, time 3 day): 0.03 mg/dL
TC (72 h, time 3 day): 79.8 mg/dL
TG (72 h, time 3 day): 40 mg/dL
TP (72 h, time 3 day): 5.4 g/dL
gamma-GTP (72 h, time 3 day): 1 IU/L
TERMINAL_BW ([…], time 7 day): 260.2 g
TERMINAL_BW ([…], time 14 day): 319 g
TERMINAL_BW ([…], time 28 day): 384.9 g
APTT ([…], time 7 day): 15.8 s
Bas ([…], time 7 day): 0%
Eos ([…], time 7 day): 1%
Fbg ([…], time 7 day): 268.6 mg/dL
Hb ([…], time 7 day): 13.4 g/dL
Ht ([…], time 7 day): 39.5%
Lym ([…], time 7 day): 73.4%
MCH ([…], time 7 day): 20.9 pg
MCHC ([…], time 7 day): 34%
MCV ([…], time 7 day): 61.5 fL
Mono ([…], time 7 day): 3%
Neu ([…], time 7 day): 21.8%
PT ([…], time 7 day): 13.1 s
Plat ([…], time 7 day): 116 x10_4/uL
RBC ([…], time 7 day): 642.2 x10_4/ul
Ret ([…], time 7 day): 5.8%
WBC ([…], time 7 day): 107.7 x10_2/uL
APTT ([…], time 14 day): 16.6 s
Bas ([…], time 14 day): 0%
Eos ([…], time 14 day): 1%
Fbg ([…], time 14 day): 294.2 mg/dL
Hb ([…], time 14 day): 14.7 g/dL
Ht ([…], time 14 day): 42.4%
Lym ([…], time 14 day): 78.8%
MCH ([…], time 14 day): 21.3 pg
MCHC ([…], time 14 day): 34.7%
MCV ([…], time 14 day): 61.3 fL
Mono ([…], time 14 day): 2.6%
Neu ([…], time 14 day): 17.2%
PT ([…], time 14 day): 13.1 s
Plat ([…], time 14 day): 114.8 x10_4/uL
RBC ([…], time 14 day): 692.2 x10_4/ul
Ret ([…], time 14 day): 4.6%
WBC ([…], time 14 day): 86.6 x10_2/uL
APTT ([…], time 28 day): 17.9 s
Bas ([…], time 28 day): 0.6%
Eos ([…], time 28 day): 1%
Fbg ([…], time 28 day): 269 mg/dL
Hb ([…], time 28 day): 15.9 g/dL
Ht ([…], time 28 day): 44.1%
Lym ([…], time 28 day): 80%
MCH ([…], time 28 day): 20.6 pg
MCHC ([…], time 28 day): 36.1%
MCV ([…], time 28 day): 57.1 fL
Mono ([…], time 28 day): 2.4%
Neu ([…], time 28 day): 15.2%
PT ([…], time 28 day): 12.7 s
Plat ([…], time 28 day): 109.5 x10_4/uL
RBC ([…], time 28 day): 771.4 x10_4/ul
Ret ([…], time 28 day): 2.6%
WBC ([…], time 28 day): 116.8 x10_2/uL
KIDNEY_L ([…], time 7 day): 1.1 g
KIDNEY_R ([…], time 7 day): 1.1 g
KIDNEY_TOTAL ([…], time 7 day): 2.3 g
KIDNEY_L ([…], time 14 day): 1.3 g
KIDNEY_R ([…], time 14 day): 1.3 g
KIDNEY_TOTAL ([…], time 14 day): 2.5 g
KIDNEY_L ([…], time 28 day): 1.4 g
KIDNEY_R ([…], time 28 day): 1.3 g
KIDNEY_TOTAL ([…], time 28 day): 2.7 g
LIVER ([…], time 7 day): 11.6 g
LIVER ([…], time 14 day): 14 g
LIVER ([…], time 28 day): 14.4 g
A/G ([…], time 7 day): 0.9
ALP ([…], time 7 day): 1546.6 IU/L
ALT ([…], time 7 day): 44.4 IU/L
AST ([…], time 7 day): 75.6 IU/L
BUN ([…], time 7 day): 15.6 mg/dL
CRE ([…], time 7 day): 0.2 mg/dL
Ca ([…], time 7 day): 10.4 mg/dL
Cl ([…], time 7 day): 104.4 meq/L
DBIL ([…], time 7 day): 0.016 mg/dL
GLC ([…], time 7 day): 179 mg/dL
IP ([…], time 7 day): 8 mg/dL
K ([…], time 7 day): 4.2 meq/L
LDH ([…], time 7 day): 75.6 IU/L
Na ([…], time 7 day): 142 meq/L
PL ([…], time 7 day): 141.6 mg/dL
RALB ([…], time 7 day): 2.5 g/dL
TBIL ([…], time 7 day): 0.024 mg/dL
TC ([…], time 7 day): 73.4 mg/dL
TG ([…], time 7 day): 117.8 mg/dL
TP ([…], time 7 day): 5.4 g/dL
gamma-GTP ([…], time 7 day): 1 IU/L
A/G ([…], time 14 day): 0.8
ALP ([…], time 14 day): 1343.2 IU/L
ALT ([…], time 14 day): 46.6 IU/L
AST ([…], time 14 day): 72.2 IU/L
BUN ([…], time 14 day): 16.8 mg/dL
CRE ([…], time 14 day): 0.2 mg/dL
Ca ([…], time 14 day): 11.2 mg/dL
Cl ([…], time 14 day): 105.2 meq/L
DBIL ([…], time 14 day): 0.014 mg/dL
GLC ([…], time 14 day): 182.6 mg/dL
IP ([…], time 14 day): 8.7 mg/dL
K ([…], time 14 day): 4 meq/L
LDH ([…], time 14 day): 68.4 IU/L
Na ([…], time 14 day): 144.2 meq/L
PL ([…], time 14 day): 158.6 mg/dL
RALB ([…], time 14 day): 2.7 g/dL
TBIL ([…], time 14 day): 0.022 mg/dL
TC ([…], time 14 day): 83.6 mg/dL
TG ([…], time 14 day): 119.4 mg/dL
TP ([…], time 14 day): 6 g/dL
gamma-GTP ([…], time 14 day): 1 IU/L
A/G ([…], time 28 day): 0.8
ALP ([…], time 28 day): 1018.2 IU/L
ALT ([…], time 28 day): 37.8 IU/L
AST ([…], time 28 day): 66.8 IU/L
BUN ([…], time 28 day): 16.6 mg/dL
CRE ([…], time 28 day): 0.2 mg/dL
Ca ([…], time 28 day): 11.2 mg/dL
Cl ([…], time 28 day): 105.2 meq/L
DBIL ([…], time 28 day): 0.016 mg/dL
GLC ([…], time 28 day): 179.4 mg/dL
IP ([…], time 28 day): 7.5 mg/dL
K ([…], time 28 day): 3.9 meq/L
LDH ([…], time 28 day): 76.8 IU/L
Na ([…], time 28 day): 143.4 meq/L
PL ([…], time 28 day): 134.4 mg/dL
RALB ([…], time 28 day): 2.7 g/dL
TBIL ([…], time 28 day): 0.03 mg/dL
TC ([…], time 28 day): 71.6 mg/dL
TG ([…], time 28 day): 134.8 mg/dL
TP ([…], time 28 day): 6.2 g/dL
gamma-GTP ([…], time 28 day): 1 IU/L
